The values that follow come from ChEMBL document CHEMBL4387731, “Eicosanoid mediation of cannabinoid actions” (2019).

Test [1] is described as follows: Inhibition of IL1aplha-induced PGE2 production in bovine articular chondrocytes at 5 uM incubated for 48 hrs by ELISA relative to control. The format is functional. The settings on record: Bos taurus. (An ELISA detects its analyte on a solid surface through an enzyme-linked reagent.)
The species named for test [2] is Cavia porcellus. The test is described as follows: Agonist activity at Dunkin Hartley guinea pig CB2 receptor assessed as reduction in […] level at 20 uM incubated for 10 mins relative to control.
For test [3], the species on record is Cavia porcellus. The test is described as follows: Agonist activity at Dunkin Hartley guinea pig CB2 receptor assessed as inhibition of capsaicin-induced depolarization at 20 uM incubated for 10 mins relative to control.
Test [4] has as its target Cannabinoid receptor 2 (Homo sapiens) (UniProt P34972). The test is described as follows: Agonist activity at human CB2 receptor assessed as inhibition of capsaicin-induced depolarization at 20 uM incubated for 10 mins relative to control.
Test [5] shares this target. The test is described as follows: Agonist activity at human CB2 receptor assessed as reduction in […] level at 20 uM incubated for 10 mins relative to control.
Test [6] deals with Mus musculus. The test is described as follows: Reduction in LTB4 production in athymic CD-1 nude mouse xenografted with human U87 cells at 0.5 mg/mouse/day administered peritumorally for 5 days by RP-HPLC analysis relative to control. Also on record: scale not given: the % may be the effect or the level left. It counts as functional. For orientation: Xenograft models place foreign cells or tissue in a host animal.

The test system of test [7] is Mus musculus. The test is described as follows: Reduction in anandamide production in athymic CD-1 nude mouse xenografted with human U87 cells at 0.5 mg/mouse/day administered peritumorally for 5 days by RP-HPLC with fluorimetric detection method relative to control. It counts as functional. Further details: scale not given: the % may be the effect or the level left.

Another test has as its system Oryctolagus cuniculus. The test is described as follows: Reduction in intraocular pressure in rabbit applied topically relative to control. Also on record: scale not given: the % may be the effect or the level left. It counts as functional.
The next test deals with J774. The test is described as follows: Inhibition of LPS-induced PGE2 production in mouse J774 cells at 10 uM incubated for 24 hrs by enzyme immunoassay relative to control. It counts as functional. The settings on record: J774, 24 h.

Chain of Cannabinoid receptor 2 (Homo sapiens) (P34972 whole entry): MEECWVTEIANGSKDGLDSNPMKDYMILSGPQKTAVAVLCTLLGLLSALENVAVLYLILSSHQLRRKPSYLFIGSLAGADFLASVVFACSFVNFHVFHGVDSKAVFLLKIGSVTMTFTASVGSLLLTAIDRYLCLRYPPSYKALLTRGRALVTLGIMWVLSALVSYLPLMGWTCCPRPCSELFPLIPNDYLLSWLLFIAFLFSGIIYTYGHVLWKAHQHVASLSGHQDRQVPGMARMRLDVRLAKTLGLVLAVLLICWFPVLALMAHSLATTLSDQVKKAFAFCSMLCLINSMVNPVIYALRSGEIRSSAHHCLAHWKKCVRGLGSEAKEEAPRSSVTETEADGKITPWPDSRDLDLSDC

With `CCCCCCC(C)(C)c1cc(O)c2c(c1)OC(C)(C)[C@@H]1CCC(CO)=C[C@@H]21`, the inhibition (as a rule, the share of the control response that was lost under treatment) at 5 µM in test [1] is greater than 50%.
With `O=C(NCc1ccncc1)c1cnc(Nc2cccc(Cl)c2)nc1C(F)(F)F`, the Imax (in the test listed under Cavia porcellus [2]; in the test filed under Cavia porcellus [3]; in test [4]; in test [5]) was 40% in each case.
With `C=C(C)[C@@H]1CCC(C)=C[C@H]1c1c(O)cc(CCCCC)cc1O` [CANNABIDIOL], the Activity in the test on Mus musculus [6] stood at 25%; in the test with Mus musculus [7], 30%.
As to `CCCCCc1cc(O)c2c(c1)OC(C)(C)[C@@H]1CCC(C)=C[C@@H]21` [DRONABINOL], the Activity in the test on Oryctolagus cuniculus is recorded as 20 - 25%. In addition, the inhibition at 10 µM in the test on J774 is 60%.
Compound `Cc1c(C(=O)c2cccc3ccccc23)c2cccc3c2n1[C@H](CN1CCOCC1)CO3` [WIN-552122] registered an inhibition at 5 µM in [1] greater than 50%.
